This is an account of results in EP1832655A2, “Methods for detecting and reversing resistance to macrocyclic lactone compounds” (priority 1997, dated 1998).

Common to all, as to assay type: in vivo
Test [1] concerns MOXIDECTIN-RESISTANT STRAIN OF H. contortus (MOF14). The test can be described thus: Effect of verapamil on efficacy of moxidectin and ivermectin in jirds, moxidectin-resistant strain. As to conditions: for EFFICACY (%) / WORM COUNTS (MEAN ± S.E.): MOF14 in jirds, 7 jirds/group, oral, MOX 0.017 mg/kg, IVM 0.028 mg/kg, VRP 20 mg/kg.
Test [2] has as its system H. contortus moxidectin-resistant (MOF14) strain. Nature of the test: Efficacy of verapamil with or without ivermectin in jirds, moxidectin resistant strain. Particulars: for % EFFICACY: MOX-RESISTANT (MOF14) strain in jirds, oral, VRP 20 mg/kg, IVM 0.046 mg/kg. As for the experimental part: (§1) Jirds, which are fed on a standard commercial ration to which 0.02% hydrocortisone has been added 5 days prior to infection, are inoculated with 1000 exsheathed L3 H. contortus. On day 10 after inoculation, the jirds are treated with either water or various doses of moxidectin or ivermectin orally. Each treatment group contains 6 jirds. Probit analyses are used to estimate LD50 levels for each anthelmintic against each strain.
(§2) H. contortus. Verapamil is given concomitantly with ivermectin by the oral route. Table 3. DEM[…] H. contortus […] OR S[…] IN JIRDS (n = # per group)

Test [3] concerns H. contortus susceptible (PF14) strain. Nature of the test: Efficacy of verapamil with or without ivermectin in jirds, susceptible strain. As to conditions: for % EFFICACY: SUSCEPTIBLE (PF14) strain in jirds, oral, VRP 20 mg/kg, IVM 0.024 mg/kg. The protocol:
as §1, §2

Where [4] appears, read: verapamil 20 mg/kg, resistant worms in jirds (Example 8).

Regarding 22,23-dihydroavermectin B1 [ivermectin], in test [1], the “EFFICACY (%)” value is on record as 80% and the “WORM COUNTS (MEAN ± S.E.)” value is 9 ± 1. For the same molecule, the “% EFFICACY” value in test [2] was found to be 79%. The “% EFFICACY” value in test [3] is 54%.
With `CO/N=C1\C[C@]2(C[C@@H]3C[C@@H](C/C=C(\C)C[C@@H](C)/C=C/C=C4\CO[C@@H]5[C@H](O)C(C)=C[C@@H](C(=O)O3)[C@]45O)O2)O[C@H](/C(C)=C/C(C)C)[C@H]1C` [moxidectin, 23-(O-methyloxime)-LL-F28249α], in test [1], the “EFFICACY (%)” value is 70% and the “WORM COUNTS (MEAN ± S.E.)” value amounted to 14 ± 3.
For `COc1ccc(CCN(C)CCCC(C#N)(c2ccc(OC)c(OC)c2)C(C)C)cc1OC` (centres unmarked) [verapamil], in test [1], the “EFFICACY (%)” value is -73% and the “WORM COUNTS (MEAN ± S.E.)” value is given as 80 ± 9. In addition, in test [1] (setting [4]), the “effect of verapamil on the efficacy of moxidectin” value is given as “significantly increases the efficacy of moxidectin” and the “increase in efficacy when verapamil is coadministered with ivermectin” value was “not significant”. Besides, the “% EFFICACY” value in test [2] is reported as -53%. The “effect of verapamil on the efficacy of ivermectin” value in test [2] (verapamil 20 mg/kg, moxidectin resistant worms in jirds (Example 7)) is “significantly enhances the efficacy of ivermectin”. Moreover, in test [3], the “% EFFICACY” value is 17%. Further, the “effect on worm counts” value in test [3] (verapamil alone, 20 to 80 mg/kg oral, jirds infected with susceptible or moxidectin resistant H. contortus) was “no significant effect on worm counts”.
